By % inhibition is commonly meant how much of the control response was suppressed.

Data on six molecules can be found in patent publication US7326717B2, “Pyrimidine n-oxide compounds for stimulating the growth of keratin fibers and/or reducing loss thereof” (L'Oreal, priority 1930, dated 2008).

The test system of experiment [1] is inducible NO-synthase (NOS2). Kind of experiment: Modulation of the induction of NOS2 on normal human keratinocytes (NO-donor activity, nitrite/nitrate measurement). In kind it is cell-based. As to conditions: for % inhibition: nitrites and nitrates measured; for NO-donating effect: conclusion from the table. On the procedure:
The activity of compounds A and A′ on inducible NO-synthase was evaluated in the test described by Heck et al. (J. B. C., Vol. 267, No. 30, 21277-21280, 25 Oct. 1992), test of “Modulation of the induction of NOS2 (Inducible Nitric Oxide Synthase) on normal human keratinocytes”. The aim of this test is to evaluate the final nitrate and nitrite concentration, after stimulation of NO-synthase 2 or application of an NO donor; it is performed by comparison with the stimulation of cytokine-inducible NO-synthase. The final nitrate and nitrite concentration corresponds to the concentration of NO released.
The test is performed on a culture of normal human keratinocytes obtained from samples. The induction of inducible NO-synthase (NOS2) was brought about by the addition of a combination of several cytokines to the culture medium. The test products were applied at three concentrations ranging from […] to 1000 μM.
The following controls were introduced into the test: • A: Positive control (induction of the enzyme on stimulated cells): mixtures of interferon-γ (1000 μ/ml) and of interleukin 1-β (100 μ/ml) corresponding to […]; • B: Basal control of the unstimulated cells (without cytokines), corresponding to […].
To determine the activity of the test products, the amount of stable NO reaction products (nitrites and nitrates) is measured using the “Nitric Colorimetric Assay” kit sold by the company Boehringer under the reference 1756.28.
The compounds were tested at concentrations of 100 μM, 500 μM and 1000 μM in ethanol.

In experiment [2] the test system is lysyl-hydroxylase messenger RNA. Kind of experiment: Inhibition of the expression of LH (RT-PCR) in normal human dermal fibroblasts. To be noted: for inhibition of the expression of lysyl-hydroxylase messenger RNA: human fibroblasts in culture, compound 1′ at 10 μM; for LH/actine ratio: percentage of expression of LH over β-Actin internal standard; for LH/actine ratio / LH/collagen ratio: control = 100, NHDF treated 6 hours; for LH/collagen ratio: percentage of expression of LH relative to collagen messenger RNA. Format: cell-based. On the procedure:
Normal human dermal fibroblasts (NHDF) are precultured at high density for 48 hours in MEM199 medium (Gibco) supplemented with 1% foetal calf serum and then treated or not treated with compound 1′ or 1 for 6 hours. The cell carpets are then washed with phosphate-buffered saline (PBS) and then frozen in Tri-reagent medium (Sigma). The total RNAs obtained are extracted with Tri-reagent (Sigma) according to the supplier's protocol. A further extraction is performed using chloroform and the RNAs are then precipitated from isopropanol. After removal of the contaminating traces of DNA by treatment with the DNA-free system (Ambion), a reverse transcription of the RNAs into complementary DNA is performed in the presence of oligo dT and the enzyme superscript II (Gibco).
A pair of primers allowing the amplification of specific LH fragments (516 bp; Mahéet al., 1996, Skin Pharmacol. 9, 177-183) and of specific primers of the sequence of collagen I (420 pb) and β-Actin (500 bp, internal reaction standard) were used for the polymerization chain reaction (PCR) with the PCR Supermix system (Gibco) under the following conditions: 94° C. for 2 minutes and then 25 times (95° C.-1 min, 55° C.-1 min, 72° C.-2 min), the chain reaction being terminated by an elongation cycle of 7 minutes at 72° C.
The amplified fragments are then analysed by electrophoresis on agarose gel (1.5%) in the presence of ethidium bromide. The images were captured on GelPrint 2000i (Biophotonics Corp); the densitometric analyses were obtained using the One D-Scan software (Scanalytics).
The results are expressed as a percentage of expression of LH over the β-Actin internal standard (LH/actine) or relative to the collagen messenger RNA (LH/collagen). A reduction of one or of the two percentages indicates a transcriptional inhibition of the relative expression of lysyl hydroxylase and, by analogy, with the molecule 2-4 DPO, (Mahéet al. 1996, Skin Pharmacol. 9. 177-183) a possible use for limiting the abnormal crosslinking of collagen in alopecia.

The next experiment concerns lysyl-hydroxylase. To be noted: described in WO 96/09048; cited from earlier work.
A further experiment relates to type L calcium-channel. To be noted: read-out: IC50Ca2+ (concentration that inhibits 50% of the release of Ca2+); cited from earlier work.
Where [3] appears, read: 100 μM in ethanol, 100 = cytokine-stimulated control A, 0 = unstimulated control B.

SMILES strings stand for the structures.

Regarding `Nc1nccc(NCCCCO[N+](=O)[O-])[n+]1[O-]` [Compound 1], the “% inhibition” value in experiment [1] (setting [3]) is on record as 0%. Moreover, the “% inhibition” value in experiment [1] (500 μM in ethanol, 100 = control A, 0 = control B, NE means no effect) stood at 18.23%. Also, in experiment [1], the NO-donating effect result is on record as “have an NO-donating effect”. In addition, in experiment [2], the “inhibition of the expression of lysyl-hydroxylase messenger RNA” value is reported as “no inhibitory activity”, the LH/actine ratio was 123% and the LH/collagen ratio was 133%.

In the case of `Nc1nccc(NCCCCO)[n+]1[O-]` [Compound 1′], in experiment [2], the “inhibition of the expression of lysyl-hydroxylase messenger RNA” value is −24% to −36%, the LH/actine ratio was determined as 64% and the LH/collagen ratio is 76%.

Turning to `Nc1nccc(NCCO[N+](=O)[O-])[n+]1[O-]` [Compound 2], the “% inhibition” value in experiment [1] (setting [3]) came out at 38.77%. The NO-donating effect entry in experiment [1] was “have an NO-donating effect”.

As for `Nc1nccc(NCCCO[N+](=O)[O-])[n+]1[O-]` [Compound 3], in experiment [1], the NO-donating effect entry is “have an NO-donating effect”.

Take `Nc1cc[n+]([O-])c(N)n1` [aminexil, 2,4-diaminopyrimidine N-oxide]: in the experiment on lysyl-hydroxylase, the “inhibitory activity on the expression of lysyl-hydroxylase” value is “has inhibitory activity on the expression of lysyl-hydroxylase”.

On to `COc1ccc(CCN(C)CCCC(C#N)(c2ccc(OC)c(OC)c2)C(C)C)cc1OC` (centres unmarked) [verapamil], for which the IC50 with type L calcium-channel was 38 nM.
